The target in one assay is TBK1 (Homo sapiens (Human), UniProt Q9UHD2). In words: TR-FRET kinase assay, TBK1. The settings on record: read-out: TBK1-IC50; full length recombinant TBK1 2.5 nM, 2x Km ATP, 1 μM peptide, 240 min at 25° C.; geometric mean of minimum four determinations.
A further assay addresses IKKε (Homo sapiens (Human), UniProt Q14164). The assay is described as follows: TR-FRET kinase assay, IKKε. The assay is classed as biochemical. The settings on record: full length recombinant IKKε 0.3 nM, 2x Km ATP, 1 μM peptide, 240 min at 25° C.; geometric mean of minimum four determinations. The text has this: Biological Assay for TBK1 and IKKs:
On the technique in general: Time-resolved FRET reads energy transfer from a long-lived donor to a nearby acceptor.

Sequence of IKKε (Q14164 whole entry): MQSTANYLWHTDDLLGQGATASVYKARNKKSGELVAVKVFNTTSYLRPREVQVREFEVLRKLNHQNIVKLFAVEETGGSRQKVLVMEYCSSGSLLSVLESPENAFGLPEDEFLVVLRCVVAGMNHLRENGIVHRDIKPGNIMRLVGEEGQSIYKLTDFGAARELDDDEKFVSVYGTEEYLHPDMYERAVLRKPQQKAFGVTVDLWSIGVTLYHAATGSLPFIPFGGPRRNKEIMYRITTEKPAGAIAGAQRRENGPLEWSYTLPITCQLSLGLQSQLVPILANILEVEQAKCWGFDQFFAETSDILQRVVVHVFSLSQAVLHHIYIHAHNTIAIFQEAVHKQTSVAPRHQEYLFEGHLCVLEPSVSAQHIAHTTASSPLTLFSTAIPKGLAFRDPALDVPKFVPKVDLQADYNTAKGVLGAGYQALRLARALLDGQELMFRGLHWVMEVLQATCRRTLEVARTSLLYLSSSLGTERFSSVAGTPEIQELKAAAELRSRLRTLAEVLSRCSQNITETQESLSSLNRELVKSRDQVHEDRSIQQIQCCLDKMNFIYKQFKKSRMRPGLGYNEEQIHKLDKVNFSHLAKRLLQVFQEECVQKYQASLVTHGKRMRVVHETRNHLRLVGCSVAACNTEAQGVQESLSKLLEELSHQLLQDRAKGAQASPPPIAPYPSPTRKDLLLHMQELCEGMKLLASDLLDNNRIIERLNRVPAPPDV
Sequence of TBK1 (Q9UHD2 whole entry): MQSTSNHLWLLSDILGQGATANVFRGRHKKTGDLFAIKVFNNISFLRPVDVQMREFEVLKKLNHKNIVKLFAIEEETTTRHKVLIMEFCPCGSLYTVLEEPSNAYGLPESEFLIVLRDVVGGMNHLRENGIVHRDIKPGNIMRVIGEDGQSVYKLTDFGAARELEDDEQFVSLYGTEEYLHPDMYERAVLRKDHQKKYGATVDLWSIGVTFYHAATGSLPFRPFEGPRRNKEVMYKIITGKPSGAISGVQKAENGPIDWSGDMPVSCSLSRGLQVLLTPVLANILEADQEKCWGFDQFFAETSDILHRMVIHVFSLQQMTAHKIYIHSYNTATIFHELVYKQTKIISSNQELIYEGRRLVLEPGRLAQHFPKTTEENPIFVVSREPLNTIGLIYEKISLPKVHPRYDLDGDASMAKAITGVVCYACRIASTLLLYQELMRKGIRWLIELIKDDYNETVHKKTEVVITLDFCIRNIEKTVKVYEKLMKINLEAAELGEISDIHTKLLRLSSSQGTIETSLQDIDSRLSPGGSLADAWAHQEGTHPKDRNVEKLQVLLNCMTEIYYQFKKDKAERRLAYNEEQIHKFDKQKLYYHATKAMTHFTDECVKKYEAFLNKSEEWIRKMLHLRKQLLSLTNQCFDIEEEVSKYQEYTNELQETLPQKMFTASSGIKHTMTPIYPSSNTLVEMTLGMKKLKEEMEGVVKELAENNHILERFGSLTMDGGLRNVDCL

Consider `N#Cc1cc(-c2ncnc3[nH]c(-c4cccc(CN5CCOCC5)c4)cc23)ccc1OC1CCN(C(=O)CO)CC1` [Example 184, 2-((1-(2-hydroxyacetyl)piperidin-4-yl)oxy)-5-(6-(3-(morpholinomethyl)phenyl)-7H-pyrrolo[2,3-d]pyrimidin-4-yl)benzonitrile], for which the results for the IC50 on TBK1 and at IKKε were 4.99 nM and 3.43 nM, respectively.
Take `N#Cc1cc(-c2ncnc3[nH]c(-c4ccc(CN5CCOCC5)cc4)nc23)ccc1OC1CCOCC1` [Example 252, 5-(8-(4-(morpholinomethyl)phenyl)-9H-purin-6-yl)-2-((tetrahydro-2H-pyran-4-yl)oxy)benzonitrile]: the results for the half-inhibitory concentration (IC50) on TBK1 and on IKKε were 3.34 nM and 4.85 nM, respectively.
For `N#Cc1cc(-c2ncnc3[nH]c(-c4ccc(CN5CCOCC5)cc4)nc23)ccc1OC1CCN(C(=O)C(F)F)CC1` [Example 266, 2-((1-(2,2-difluoroacetyl)piperidin-4-yl)oxy)-5-(8-(4-(morpholinomethyl)phenyl)-9H-purin-6-yl)benzonitrile] the same measures were 8.87 nM and 7.95 nM.
Turning to `COc1cc(-c2cc3c(-c4ccc(OC5CCNCC5)c(C#N)c4)ncnc3[nH]2)ccc1N1CCOCC1` [Example 122, 5-(6-(3-methoxy-4-morpholinophenyl)-7H-pyrrolo[2,3-d]pyrimidin-4-yl)-2-(piperidin-4-yloxy)benzonitrile], the figures for the IC50 on TBK1 and at IKKε were 21.2 nM and 115 nM, respectively.
The like results for `N#Cc1cc(-c2ncnc3[nH]c(-c4ccc(N5CCOCC5)c(F)c4)cc23)ccc1OC1CCN(C(=O)CO)CC1` [Example 158, 5-(6-(3-fluoro-4-morpholinophenyl)-7H-pyrrolo[2,3-d]pyrimidin-4-yl)-2-((1-(2-hydroxyacetyl)piperidin-4-yl)oxy)benzonitrile] were, in that order, 1.02 nM and 2.39 nM.
The like results for `N#Cc1cc(-c2ccnc3[nH]c(-c4ccc(N5CCOCC5)cc4)cc23)ccc1O[C@@H]1CCN(CC(F)F)C1` [Example 31, (R)-2-((1-(2,2-difluoroethyl)pyrrolidin-3-yl)oxy)-5-(2-(4-morpholinophenyl)-1H-pyrrolo[2,3-b]pyridin-4-yl)benzonitrile] were, in that order, 19.1 nM and 59.2 nM.
The like results for `CN1CCN(c2ccc(-c3cc4c(-c5ccc(OC6CCOCC6)c(C#N)c5)ccnc4[nH]3)cc2)CC1` [Example 82, 5-(2-(4-(4-methylpiperazin-1-yl)phenyl)-1H-pyrrolo[2,3-b]pyridin-4-yl)-2-((tetrahydro-2H-pyran-4-yl)oxy)benzonitrile] were, in that order, 0.9 nM and 0.29 nM.
Take `N#Cc1cc(-c2ccnc3[nH]c(C4CC4)cc23)ccc1OC1CCOCC1` [Example 50, 5-(2-cyclopropyl-1H-pyrrolo[2,3-b]pyridin-4-yl)-2-((tetrahydro-2H-pyran-4-yl)oxy)benzonitrile]: the IC50 (commonly the concentration that gives 50% inhibition) on TBK1 was determined as 651 nM; on IKKε, 449 nM.
The like results for `N#Cc1cc(-c2ccnc3[nH]c(-c4ccc(N5CCOCC5)cc4)cc23)ccc1O[C@H]1CCNC1` [Example 22, (S)-5-(2-(4-morpholinophenyl)-1H-pyrrolo[2,3-b]pyridin-4-yl)-2-(pyrrolidin-3-yloxy)benzonitrile] were, in that order, 39.6 nM and 132 nM.
Turning to “4-(2-cyano-4-(2-(4-(4-(2,2-difluoroethyl)piperazin-1-yl)phenyl)-3H-imidazo[4,5-b]pyridin-7-yl)phenoxy)piperidine-1-sulfonamide [Example 263]”, the IC50 on TBK1 was 3.07 nM; on IKKε it was 6.32 nM.
As for `Cc1ccc(-c2ccnc3[nH]c(-c4ccc(N5CCOCC5)cc4)cc23)cc1C#N` [Example 69, 2-methyl-5-(2-(4-morpholinophenyl)-1H-pyrrolo[2,3-b]pyridin-4-yl)benzonitrile], the figures for the concentration for half-maximal inhibition (IC50) on TBK1 and on IKKε were 79.7 nM and over 1000 nM, respectively.
Regarding `N#Cc1cc(-c2ncnc3[nH]c(-c4cccc(N5CCOCC5)c4)cc23)ccc1CN1CCOCC1` [Example 113, 2-(morpholinomethyl)-5-(6-(3-morpholinophenyl)-7H-pyrrolo[2,3-d]pyrimidin-4-yl)benzonitrile], the IC50 at TBK1 was 69.1 nM; on IKKε, 1000 nM.
For `CC(=O)N1CCC(Oc2ccc(-c3ncnc4[nH]c(-c5ccc(N6CCOCC6)cc5)nc34)cc2C#N)CC1` [Example 249, 2-((1-acetylpiperidin-4-yl)oxy)-5-(8-(4-morpholinophenyl)-9H-purin-6-yl)benzonitrile] the same measures were 6.09 nM and 14.2 nM.
For `N#Cc1cc(-c2ncnc3[nH]c(-c4ccc(OCCN5CCCC5)cc4)cc23)ccc1OC1CCN(C(=O)CO)CC1` [Example 229, 2-((1-(2-hydroxyacetyl)piperidin-4-yl)oxy)-5-(6-(4-(2-(pyrrolidin-1-yl)ethoxy)phenyl)-7H-pyrrolo[2,3-d]pyrimidin-4-yl)benzonitrile] the same measures were 1.01 nM and 0.851 nM.
`COc1cc(-c2cc3c(-c4ccc(OC5CCN(C(=O)CO)CC5)c(C#N)c4)ncnc3[nH]2)ccc1N1CCOCC1` [Example 125, 2-((1-(2-hydroxyacetyl)piperidin-4-yl)oxy)-5-(6-(3-methoxy-4-morpholinophenyl)-7H-pyrrolo[2,3-d]pyrimidin-4-yl)benzonitrile]: the 50% inhibitory concentration (IC50) was determined as 0.9 nM on TBK1 and 2.62 nM on IKKε.
Take `CC(C)(O)c1ccc(-c2cc3c(-c4ccc(OC5CCOCC5)c(C#N)c4)ncnc3[nH]2)cc1` [Example 109, 5-(6-(4-(2-hydroxypropan-2-yl)phenyl)-7H-pyrrolo[2,3-d]pyrimidin-4-yl)-2-((tetrahydro-2H-pyran-4-yl)oxy)benzonitrile]: the 50% inhibitory concentration (IC50) at TBK1 is 0.821 nM; on IKKε it was 4.99 nM.
With `N#Cc1cc(-c2ccnc3[nH]c(-c4cnn(C5COC5)c4)cc23)ccc1OC1CCOCC1` [Example 6, 5-(2-(1-(oxetan-3-yl)-1H-pyrazol-4-yl)-1H-pyrrolo[2,3-b]pyridin-4-yl)-2-((tetrahydro-2H-pyran-4-yl)oxy)benzonitrile], the IC50 at TBK1 turned out to be 3.13 nM; on IKKε, 4.87 nM.
Turning to `CC(=O)Nc1ccc(-c2cc3c(-c4ccc(OC5CCOCC5)c(C#N)c4)ccnc3[nH]2)cn1` [Example 236, N-(5-(4-(3-cyano-4-((tetrahydro-2H-pyran-4-yl)oxy)phenyl)-1H-pyrrolo[2,3-b]pyridin-2-yl)pyridin-2-yl)acetamide], the IC50 came to 15.8 nM on TBK1 and 7.91 nM on IKKε.
Take `N#Cc1cc(-c2ncnc3[nH]c(-c4ccc(N5CCOCC5)c(F)c4)nc23)ccc1OC1CCNCC1` [Example 244, 5-(8-(3-fluoro-4-morpholinophenyl)-9H-purin-6-yl)-2-(piperidin-4-yloxy)benzonitrile]: the IC50 was determined as 35.8 nM at TBK1 and 151 nM at IKKε.
Turning to `N#Cc1cc(-c2ncnc3[nH]c(-c4ccc(N5CCOCC5)cc4)cc23)ccc1OCC1CC1` [Example 102, 2-(cyclopropylmethoxy)-5-(6-(4-morpholinophenyl)-7H-pyrrolo[2,3-d]pyrimidin-4-yl)benzonitrile], the IC50 at TBK1 and at IKKε was over 1000 nM throughout.
With `CC(C)(O)c1ccc(-c2cc3c(-c4cc(C#N)c(OC5CCOCC5)cn4)ccnc3[nH]2)cc1` [Example 170, 2-(2-(4-(2-Hydroxypropan-2-yl)phenyl)-1H-pyrrolo[2,3-b]pyridin-4-yl)-5-((tetrahydro-2H-pyran-4-yl)oxy)isonicotinonitrile], the half-maximal inhibitory concentration (IC50) came to 3.84 nM on TBK1 and 8.18 nM at IKKε.

For the origin of these results see patent publication US10072001B2, “Tank-binding kinase inhibitor compounds” (Gilead Sciences, Inc., priority 2014, dated 2018).
